Earlier results on two molecules are cited in publication PMC11292818 (ACS Omega, 2024).

The target in the data set is acetylcholinesterase (AChE) (Homo sapiens, UniProt P22303). Particulars: read-out: IC50 against acetylcholinesterase.
Sequence of acetylcholinesterase (AChE) (P22303 32-614, species assumed): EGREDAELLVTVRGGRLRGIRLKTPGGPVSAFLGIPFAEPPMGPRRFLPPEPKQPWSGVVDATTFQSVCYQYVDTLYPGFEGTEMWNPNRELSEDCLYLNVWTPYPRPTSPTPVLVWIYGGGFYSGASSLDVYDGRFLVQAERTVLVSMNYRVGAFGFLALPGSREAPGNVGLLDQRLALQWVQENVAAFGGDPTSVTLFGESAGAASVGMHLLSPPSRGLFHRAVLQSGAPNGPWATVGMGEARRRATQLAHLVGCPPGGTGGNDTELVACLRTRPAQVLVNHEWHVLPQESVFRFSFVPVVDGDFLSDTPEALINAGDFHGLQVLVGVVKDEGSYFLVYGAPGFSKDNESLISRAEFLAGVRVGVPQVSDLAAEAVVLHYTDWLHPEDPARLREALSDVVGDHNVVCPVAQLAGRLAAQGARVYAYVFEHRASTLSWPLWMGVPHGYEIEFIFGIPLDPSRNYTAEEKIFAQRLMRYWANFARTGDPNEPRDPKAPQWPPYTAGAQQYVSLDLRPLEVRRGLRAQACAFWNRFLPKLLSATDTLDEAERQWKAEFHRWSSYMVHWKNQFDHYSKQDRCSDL

In the case of `COc1cc(O)c(OC)c(O)c1C(=O)/C=C/c1ccccc1` [Compound 3, 2′,4′-dihydroxy-3′,6′-dimethoxychalcone], the IC50 was 20.1 µM.

Turning to `CC(C)=CCc1c(O)ccc(C(=O)/C=C/c2ccc(O)cc2)c1O` [Compound 4, isobavachalcone], the IC50 was 18.3 µM.

Broadly, the IC50 is the concentration needed to halve the response being measured.
